Source: PMC5773577, “Novel Miniature Membrane Active Lipopeptidomimetics against Planktonic and Biofilm Embedded Methicillin-Resistant Staphylococcus aureus” (Scientific Reports, 2018)
Converted amounts (≈) assume the structure as drawn. Non-standard residues stand in square brackets, D forms with d. Residues, ends and D or L forms follow the SMILES beside them. No end group written: not given here. d1Nal = N[C@H](Cc1cccc2ccccc12)C(=O)O; 12Ado = NCCCCCCCCCCCC(=O)O

Legend:
[1] = system: mouse red blood cells (RBCs); assay: Hemolysis assay; assay type: cell-based; details: mouse RBC, up to 250 μg/mL, 1 h, 37 °C, PBS pH 7.4; 0.1% Triton X-100 = 100%; data not shown
Experimental: For the experiment, a previously defined procedure was used with slight modifications[67],[68]. Briefly, blood was withdrawn from mice on the day of the experiment. After washing red blood cells (RBC) twice with phosphate buffer saline (PBS: 35 mM sodium phosphate, 150 mM NaCl, pH 7.4), a 4% v/v suspension of RBC was prepared in the same buffer. In a 96-well plate, serial two-fold dilutions of desired concentrations of peptidomimetics (in PBS) were prepared (100 μL) in duplicate. To each well 100 μL of 4% v/v RBC suspension was added. The plates were incubated at 37 °C for 1 h. After 1 h, the plates were centrifuged at 1500 rpm for 10 min and 20 μL of the supernatant was transferred to a fresh 96-well plate containing 80 μL PBS. The hemoglobin release was quantified by measuring OD414 in an ELISA plate reader (Molecular Devices, Sunnyvale, CA, USA). Hemoglobin release from 0.1% Triton X-100 treated RBC was set as 100% lysis (Amax) while as negative control RBC suspended in PBS alone was used (APBS). Percentage hemolysis was calculated using the following equation:1 %hemolysis=[(Asample−APBS)/(Amax−APBS)]×100

[2] = system: Escherichia coli (ATCC 11775); assay type: cell-based
Experimental: (§1) The antibacterial activity was evaluated as MIC using slight modifications to a serial broth micro dilution method as reported previously[66],[67]. Briefly, to each treatment well of the 96-well plate (Corning Incorporated, USA) 10 μL of peptidomimetic/antibiotic was added and subsequently diluted serial 2-fold in 0.2% BSA (in 0.01% acetic acid). Then to each well of the first 11 columns 100 μL of mid-log phase bacterial suspension in MHB medium was added to get 2–5 × 10^5 CFU/mL. Cultures without test peptidomimetics/antibiotics were used as growth control. Uninoculated MHB medium was used as negative control. The microtitre plates were incubated overnight with agitation (180 rpm) at 37 °C. After 16–18 h incubation, absorbance was read at 600 nm using an ELISA plate reader (Molecular Devices, Sunnyvale, CA, USA). The experiments were carried out in duplicate on at least three different days.

[3] = system: E. faecium (E-7846), clinical isolate of vancomycin-resistant E. faecium; assay: organism not typed; assay type: cell-based, Enterococcus faecium; details: VRE clinical isolate E-7846; MHB, 2–5 × 10^5 CFU/mL, 16–18 h, 37 °C
Experimental: as §1

[4] = system: Methicillin-resistant S. epidermidis (ATCC 35984); assay: microbe, parasite or virus in culture; assay type: cell-based, Staphylococcus epidermidis; details: MRSE ATCC 35984; MHB, 2–5 × 10^5 CFU/mL, 16–18 h, 37 °C, OD600
Experimental: as §1

[5] = system: S. aureus (ISP479R); assay type: cell-based, Staphylococcus aureus; details: MHB, 2–5 × 10^5 CFU/mL, 16–18 h, 37 °C, OD600
Experimental: as §1

[6] = system: 3T3 murine fibroblast cell line; assay: Cytotoxicity, MTT assay; assay type: cell-based; details: 3T3 fibroblasts, 2 h, DMEM with 10% FBS, mean ± S.D., triplicate on two days
Experimental: For the active peptidomimetics cytotoxicity was measured against 3T3 murine fibroblast cell line using a previously defined MTT assay with slight modifications. Briefly, the cells were grown to over 75% confluence in DMEM supplemented with 10% FBS and antibiotics (1 × Anti-anti) at 37 °C in 5% CO2 atmosphere. The cells were transferred to a 24-well plate to a final count of ~8 × 10^4 cells/well. […] The plates were kept for 2 h at 37 °C in 5% CO2 incubator. After 2 h, the cells were washed once with 1 mL PBS. Then 1 mL MTT (0.1 mg/mL) was added to each well in dark and incubated for 2 h at 37 °C in 5% CO2. After 2 h, 200 μL of DMSO was added to the wells to dissolve the formazan crystals formed and the plates were kept for 5 min in the incubator at 37 °C. 100 μL of the suspension was transferred to a fresh 96-well plate and absorbance (Asample) was measured at 570 nm in an ELISA plate reader (Molecular Devices, Sunnyvale, CA, USA). The wells with DMSO treatment were set as untreated control (Auntreated control). The assay was done in triplicate on two different days. The % survival was calculated using the following equation:2 %survival=[Asample/Auntreatedcontrol]×100

[7] = system: MRSA (ATCC 43300); assay: microbe, parasite or virus in culture; assay type: cell-based, Staphylococcus aureus; details: MHB, 2–5 × 10^5 CFU/mL, 16–18 h, 37 °C, OD600
Experimental: as §1

N=C(N)NCCC[C@H](NC(=O)[C@@H](N)Cc1c[nH]c2ccccc12)C(=O)N[C@H](Cc1ccccc1C(F)(F)F)C(=O)N[C@@H](CCCNC(=N)N)C(=O)N[C@@H](Cc1c[nH]c2ccccc12)C(N)=O [S-2, Trp-Arg-(2-trifluoromethyl-D-Phe)-Arg-Trp-CONH2] (HELM PEPTIDE1{W.R.[O=C([C@@H](Cc1ccccc1C(F)(F)F)N[*:1])[*:2]].R.W.[am]}$$$$V2.0)
% hemolysis [1]: < 5%

N=C(N)NCCC[C@H](NC(=O)[C@@H](N)Cc1c[nH]c2ccccc12)C(=O)N[C@H](Cc1cccc2ccccc12)C(=O)N[C@@H](CCCNC(=N)N)C(=O)N[C@@H](Cc1c[nH]c2ccccc12)C(N)=O [S-3, Trp-Arg-(D-1-Nal)-Arg-Trp-CONH2] (HELM PEPTIDE1{W.R.[O=C([C@@H](Cc1cccc2ccccc12)N[*:1])[*:2]].R.W.[am]}$$$$V2.0)
% hemolysis [1]: < 5%

N=C(N)NCCC[C@H](NC(=O)[C@@H](Cc1cccc2ccccc12)NC(=O)CCCCCCCCCCCNC(=O)[C@@H](Cc1cccc2ccccc12)NC(=O)[C@@H](N)CCCNC(=N)N)C(N)=O [S-8, Arg-(D-1-Nal)-(12-ADO)-(D-1-Nal)-Arg-CONH2] (H-R[d1Nal][12Ado][d1Nal]R-NH2)
MIC [2]: 5.6 µg/mL (≈ 6.08 µM) | Minimum inhibitory concentration, MIC [3]: 5.6 µg/mL (≈ 6.08 µM) | Minimum inhibitory concentration, MIC [4]: 1.4 µg/mL (≈ 1.52 µM) | Minimum inhibitory concentration, MIC [5]: 0.7 µg/mL (≈ 0.76 µM) | % viable cells relative to untreated control (MTT) ([6]; 10× MIC): 84.8 ± 5.6% | % viable cells relative to untreated control (MTT) ([6]; 20 × MIC): 81.1 ± 2.9% | Minimum inhibitory concentration, MIC [7]: 1.4 µg/mL (≈ 1.52 µM)

WRWRW-NH2 [S-1, Trp-Arg-Trp-Arg-Trp-CONH2]
% hemolysis [1]: < 5%
